# Where two headings read alike, the source gives them in different places.
# What was measured:
# [1] = biological target: T1, panel of 255 wild-type kinases (Homo sapiens, UniProt Q9BZL6); assay: Kinase panel profiling at 1 µmol/L (MSA or IMAP), percentage inhibition; format: biochemical; conditions: kinase PKD2; 1 µmol/L single concentration; read-out: %-inhibition at 1 µmol/L, PKD2
# T1 sequence (Q9BZL6 1-878): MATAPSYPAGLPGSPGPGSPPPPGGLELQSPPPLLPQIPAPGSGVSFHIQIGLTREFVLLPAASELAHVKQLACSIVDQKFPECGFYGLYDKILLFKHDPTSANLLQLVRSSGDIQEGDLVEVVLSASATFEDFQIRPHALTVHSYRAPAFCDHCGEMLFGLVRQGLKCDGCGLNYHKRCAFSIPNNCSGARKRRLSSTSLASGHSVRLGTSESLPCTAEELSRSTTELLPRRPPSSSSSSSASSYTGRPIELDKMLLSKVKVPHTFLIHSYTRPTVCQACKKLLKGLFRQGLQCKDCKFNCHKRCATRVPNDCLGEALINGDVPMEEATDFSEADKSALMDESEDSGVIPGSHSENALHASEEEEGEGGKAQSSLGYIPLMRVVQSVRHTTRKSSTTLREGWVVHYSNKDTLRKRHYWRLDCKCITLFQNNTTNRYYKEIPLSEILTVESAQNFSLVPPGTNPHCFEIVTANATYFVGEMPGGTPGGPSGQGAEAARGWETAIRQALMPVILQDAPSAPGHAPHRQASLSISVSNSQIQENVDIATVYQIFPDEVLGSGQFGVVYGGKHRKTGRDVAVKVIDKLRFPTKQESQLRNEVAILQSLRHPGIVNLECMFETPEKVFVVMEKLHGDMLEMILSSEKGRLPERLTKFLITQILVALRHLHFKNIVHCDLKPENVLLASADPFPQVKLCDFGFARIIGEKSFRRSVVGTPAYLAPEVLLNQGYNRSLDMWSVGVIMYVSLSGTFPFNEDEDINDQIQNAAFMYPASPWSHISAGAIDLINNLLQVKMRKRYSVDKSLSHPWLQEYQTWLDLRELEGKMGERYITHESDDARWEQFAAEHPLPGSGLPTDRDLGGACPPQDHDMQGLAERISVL
# AP-1060 (ETV6-NTRK3) = assay: Cell viability assay; conditions: read-out: IC50 in cell proliferation assay
# 134 cancer cell lines = assay: Cell viability assay (ATPlite, 72 hours), IC50 on cancer cell line panel
structure (smiles),measurement,setting,value
Cc1cc(Nc2ncnc3ccc(NC4=NC(C)(C)CO4)cc23)ccc1Oc1ccn2ncnc2c1 [tucatinib],inhibition at 1 µM,[1],44%
same,IC50,AP-1060 (ETV6-NTRK3),29.1 µM
same,IC50,"134 cancer cell lines; HEC-6, read-out: IC50 in cell proliferation assay, HEC-6 cell line (EGFR p.A289V)",14.8 µM
same,IC50,"134 cancer cell lines; Homo sapiens, 769-P, read-out: IC50 in cell proliferation assay, cell line 769-P",20.2 µM
same,IC50,"134 cancer cell lines; Homo sapiens, 786-0, read-out: IC50 in cell proliferation assay, cell line 786-O",21.3 µM
same,IC50,"134 cancer cell lines; Homo sapiens, A 172, read-out: IC50 in cell proliferation assay, cell line A-172",17.4 µM
same,IC50,"134 cancer cell lines; Homo sapiens, A204, read-out: IC50 in cell proliferation assay, cell line A-204",11.4 µM
same,IC50,"134 cancer cell lines; Homo sapiens, A498, read-out: IC50 in cell proliferation assay, cell line A-498",20.4 µM
same,IC50,"134 cancer cell lines; Homo sapiens, A549, read-out: IC50 in cell proliferation assay, cell line A-549",25.7 µM
same,IC50,"134 cancer cell lines; Homo sapiens, A704, read-out: IC50 in cell proliferation assay, cell line A-704",> 31.6 µM
same,IC50,"134 cancer cell lines; Homo sapiens, A-375, read-out: IC50 in cell proliferation assay, cell line A-375 (BRAF p.V600E)",11.3 µM
same,IC50,"134 cancer cell lines; Homo sapiens, A-427, read-out: IC50 in cell proliferation assay, cell line A-427",22.2 µM
same,IC50,"134 cancer cell lines; Homo sapiens, ACHN, read-out: IC50 in cell proliferation assay, cell line ACHN",13.9 µM
same,IC50,"134 cancer cell lines; Homo sapiens, AN3-CA, read-out: IC50 in cell proliferation assay, cell line AN3-CA (FGFR2 p.N549K)",24.5 µM
same,IC50,"134 cancer cell lines; Homo sapiens, ASPC1, read-out: IC50 in cell proliferation assay, cell line AsPC-1",> 31.6 µM
same,IC50,"134 cancer cell lines; Homo sapiens, AU565, read-out: IC50 in cell proliferation assay, cell line AU565 (ERBB2 amplification)",0.125 µM
same,IC50,"134 cancer cell lines; Homo sapiens, BT-20, read-out: IC50 in cell proliferation assay, cell line BT-20",28.8 µM
same,IC50,"134 cancer cell lines; Homo sapiens, BT-474, read-out: IC50 in cell proliferation assay, cell line BT-474 (ERBB2 amplification)",0.029 µM
same,IC50,"134 cancer cell lines; Homo sapiens, BT-549, read-out: IC50 in cell proliferation assay, cell line BT-549",15.9 µM
same,IC50,"134 cancer cell lines; Homo sapiens, BXPC-3, read-out: IC50 in cell proliferation assay, cell line BxPC-3",12.6 µM
same,IC50,"134 cancer cell lines; Homo sapiens, C-33-A, read-out: IC50 in cell proliferation assay, cell line C-33 A",0.412 µM
same,IC50,"134 cancer cell lines; Homo sapiens, CAL-27, read-out: IC50 in cell proliferation assay, cell line CAL-27",13.7 µM
same,IC50,"134 cancer cell lines; Homo sapiens, CCF-STTG1, read-out: IC50 in cell proliferation assay, cell line CCF-STTG1",> 31.6 µM
same,IC50,"134 cancer cell lines; Homo sapiens, CCRF-CEM, read-out: IC50 in cell proliferation assay, cell line CCRF-CEM",17.7 µM
same,IC50,"134 cancer cell lines; Homo sapiens, COLO 205, read-out: IC50 in cell proliferation assay, cell line COLO 205 (BRAF p.V600E)",22.2 µM
same,IC50,"134 cancer cell lines; Homo sapiens, COLO-829, read-out: IC50 in cell proliferation assay, cell line COLO 829 (BRAF p.V600E)",20.6 µM
same,IC50,"134 cancer cell lines; Homo sapiens, DLD-1, read-out: IC50 in cell proliferation assay, cell line DLD-1",23.2 µM
same,IC50,"134 cancer cell lines; Homo sapiens, DU-4475, read-out: IC50 in cell proliferation assay, cell line DU4475 (BRAF p.V600E)",10.7 µM
same,IC50,"134 cancer cell lines; Homo sapiens, Daoy, read-out: IC50 in cell proliferation assay, cell line Daoy",30.2 µM
same,IC50,"134 cancer cell lines; Homo sapiens, DoTc2-4510, read-out: IC50 in cell proliferation assay, cell line DoTc2 4510",5.59 µM
same,IC50,"134 cancer cell lines; Homo sapiens, EOL1, read-out: IC50 in cell proliferation assay, cell line EoL-1 (FIP1L1-PDGFRA)",4.24 µM
same,IC50,"134 cancer cell lines; Homo sapiens, FaDu, read-out: IC50 in cell proliferation assay, cell line FaDu",14.1 µM
same,IC50,"134 cancer cell lines; Homo sapiens, G-361, read-out: IC50 in cell proliferation assay, cell line G-361 (BRAF p.V600E)",13.5 µM
same,IC50,"134 cancer cell lines; Homo sapiens, HCC827, read-out: IC50 in cell proliferation assay, cell line HCC827 (EGFR exon19del)",2.38 µM
same,IC50,"134 cancer cell lines; Homo sapiens, HCC4006, read-out: IC50 in cell proliferation assay, cell line HCC4006 (EGFR exon19del)",6.56 µM
same,IC50,"134 cancer cell lines; Homo sapiens, HCT-15, read-out: IC50 in cell proliferation assay, cell line HCT 15",16.7 µM
same,IC50,"134 cancer cell lines; Homo sapiens, HCT-116, read-out: IC50 in cell proliferation assay, cell line HCT 116",21.9 µM
same,IC50,"134 cancer cell lines; Homo sapiens, HEC-1, read-out: IC50 in cell proliferation assay, HEC-1 cell line",13.9 µM
same,IC50,"134 cancer cell lines; Homo sapiens, HEC-1B, read-out: IC50 in cell proliferation assay, HEC-1-B cell line (EGFR p.A864V)",1.62 µM
same,IC50,"134 cancer cell lines; Homo sapiens, HL-60, read-out: IC50 in cell proliferation assay, HL-60 cell line",16.9 µM
same,IC50,"134 cancer cell lines; Homo sapiens, HT, read-out: IC50 in cell proliferation assay, HT cell line",29.9 µM
same,IC50,"134 cancer cell lines; Homo sapiens, HT-1080, read-out: IC50 in cell proliferation assay, HT-1080 cell line",17.2 µM
same,IC50,"134 cancer cell lines; Homo sapiens, Hs746T, read-out: IC50 in cell proliferation assay, Hs 746.T cell line (MET exon14skip + amplification)",12.4 µM
same,IC50,"134 cancer cell lines; Homo sapiens, Hs-578T, read-out: IC50 in cell proliferation assay, Hs 578T cell line",24.1 µM
same,IC50,"134 cancer cell lines; Homo sapiens, HuTu80, read-out: IC50 in cell proliferation assay, HuTu 80 cell line",0.623 µM
same,IC50,"134 cancer cell lines; Homo sapiens, J82, read-out: IC50 in cell proliferation assay, J82 cell line",> 31.6 µM
same,IC50,"134 cancer cell lines; Homo sapiens, Jurkat E6.1, read-out: IC50 in cell proliferation assay, Jurkat E6.1 cell line",14.7 µM
same,IC50,"134 cancer cell lines; Homo sapiens, K562, read-out: IC50 in cell proliferation assay, K-562 cell line",8.53 µM
same,IC50,"134 cancer cell lines; Homo sapiens, KATO III, read-out: IC50 in cell proliferation assay, KATO III cell line (FGFR2 amplification)",17.9 µM
same,IC50,"134 cancer cell lines; Homo sapiens, KG-1, read-out: IC50 in cell proliferation assay, KG-1 cell line (FGFR1OP2-FGFR1)",16.2 µM
same,IC50,"134 cancer cell lines; Homo sapiens, KLE, read-out: IC50 in cell proliferation assay, KLE cell line",4.74 µM
same,IC50,"134 cancer cell lines; Homo sapiens, KMS-11, read-out: IC50 in cell proliferation assay, KMS-11 cell line (FGFR3 p.Y373C)",18.2 µM
same,IC50,"134 cancer cell lines; Homo sapiens, KU812, read-out: IC50 in cell proliferation assay, Ku812 cell line",22.6 µM
same,IC50,"134 cancer cell lines; Homo sapiens, Kasumi 1, read-out: IC50 in cell proliferation assay, Kasumi-1 cell line (KIT p.N822K)",24.3 µM
same,IC50,"134 cancer cell lines; Homo sapiens, LC-2-ad, read-out: IC50 in cell proliferation assay, LC-2/ad cell line (CCDC6-RET)",22.5 µM
same,IC50,"134 cancer cell lines; Homo sapiens, LNCaP-Clone-FGC, read-out: IC50 in cell proliferation assay, LNCaP clone FGC cell line",21.8 µM
same,IC50,"134 cancer cell lines; Homo sapiens, LS174T, read-out: IC50 in cell proliferation assay, LS174T cell line",20.3 µM
same,IC50,"134 cancer cell lines; Homo sapiens, LS-411N, read-out: IC50 in cell proliferation assay, LS411N cell line (BRAF p.V600E)",21.4 µM
same,IC50,"134 cancer cell lines; Homo sapiens, LoVo, read-out: IC50 in cell proliferation assay, LoVo cell line",25.7 µM
same,IC50,"134 cancer cell lines; Homo sapiens, MCF7, read-out: IC50 in cell proliferation assay, MCF-7 cell line",30.5 µM
same,IC50,"134 cancer cell lines; Homo sapiens, MDA-MB-231, read-out: IC50 in cell proliferation assay, MDA-MB-231 cell line",22.5 µM
same,IC50,"134 cancer cell lines; Homo sapiens, MDA-MB-453, read-out: IC50 in cell proliferation assay, MDA-MB-453 cell line",5.93 µM
same,IC50,"134 cancer cell lines; Homo sapiens, MDA-MB-468, read-out: IC50 in cell proliferation assay, MDA-MB-468 cell line",8.88 µM
same,IC50,"134 cancer cell lines; Homo sapiens, MG-63, read-out: IC50 in cell proliferation assay, MG-63 cell line",29.4 µM
same,IC50,"134 cancer cell lines; Homo sapiens, MIA PaCa-2, read-out: IC50 in cell proliferation assay, MIA PaCa-2 cell line",18.3 µM
same,IC50,"134 cancer cell lines; Homo sapiens, MKN-45, read-out: IC50 in cell proliferation assay, MKN45 cell line (MET amplification)",17.1 µM
same,IC50,"134 cancer cell lines; Homo sapiens, MOLM-13, read-out: IC50 in cell proliferation assay, MOLM-13 cell line (FLT3 ITD)",14.3 µM
